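Cells were grown in 96-well plates and exposed to each compound for 48 hours at five concentrations; endpoints were interpolated linearly between bracketing concentrations, or set to the highest concentration if not reached. TGI: total growth inhibition.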

Results on 17 compounds are retold here after PubChem BioAssay (NCI).

Some test systems named below: U251 CNS; SK-MEL-2 melanoma; RXF-631 renal; DLD-1 colon; XF 498 CNS; LXFL 529 NSCLC; KM20L2 colon; SNB-78 CNS; MOLT-4 leukemia; M19-MEL melanoma; TK-10 renal; RXF 393 renal; DMS 114 small cell lung; MALME-3M melanoma; DMS 273 small cell lung; HOP-18 NSCLC.
Holding throughout (assay): growth of human tumour cells (NCI), 48 h

`CN(C)c1cccc(-c2cc(=O)c3cc4c(cc3[nH]2)OCO4)c1`: the TGI in the assay with U251 CNS was 3.95 µM; in the assay with SK-MEL-2 melanoma it was greater than 100 µM; in the assay on RXF-631 renal, greater than 100 µM; with DLD-1 colon, greater than 100 µM; with XF 498 CNS it was 7.24 µM; in the assay on LXFL 529 NSCLC, greater than 48.4 µM. Besides, the TGI was 0.515 µM with KM20L2 colon; greater than 100 µM with SNB-78 CNS; greater than 100 µM in the assay on MOLT-4 leukemia; greater than 100 µM in the assay on M19-MEL melanoma; greater than 100 µM with TK-10 renal; 0.859 µM in the assay with RXF 393 renal.
As for `CC(C)(C)c1cc(N=NC(=S)NCc2ccccc2)cc(C(C)(C)C)c1O`, the TGI with U251 CNS, with DMS 114 small cell lung, with SK-MEL-2 melanoma, in the assay on MALME-3M melanoma, with DMS 273 small cell lung and in the assay on RXF-631 renal was greater than 100 µM each time. Besides, the TGI in the assay on DLD-1 colon, in the assay with XF 498 CNS, in the assay on LXFL 529 NSCLC, in the assay with KM20L2 colon, in the assay on MOLT-4 leukemia and in the assay with M19-MEL melanoma was greater than 100 µM in each case. Further, the TGI in the assay with TK-10 renal and in the assay with RXF 393 renal was greater than 100 µM each time.
Regarding `c1cc2[se][se]c3c4cccc5[se][se]c(c(c1)c23)c54`, the TGI in the assay on U251 CNS, in the assay on DMS 114 small cell lung, in the assay with SK-MEL-2 melanoma, with MALME-3M melanoma, in the assay on DMS 273 small cell lung and with DLD-1 colon was greater than 100 µM in each case. Moreover, the TGI with XF 498 CNS, in the assay with LXFL 529 NSCLC, in the assay on HOP-18 NSCLC, with KM20L2 colon, in the assay on SNB-78 CNS and in the assay with MOLT-4 leukemia was greater than 100 µM throughout. The TGI in the assay on M19-MEL melanoma, with TK-10 renal and with RXF 393 renal was greater than 100 µM each time.
Take `C1=Cc2nc1c(-c1ccccc1)c1ccc([n-]1)c(-c1ccccc1)c1nc(c(-c3ccccc3)c3ccc([n-]3)c2-c2ccccc2)C=C1.[Zn+2]`: the TGI in the assay on U251 CNS, in the assay on DMS 114 small cell lung, in the assay on SK-MEL-2 melanoma, with MALME-3M melanoma, with RXF-631 renal and in the assay on DLD-1 colon was greater than 100 µM throughout. Moreover, the TGI in the assay on XF 498 CNS, in the assay with LXFL 529 NSCLC, with KM20L2 colon, in the assay on SNB-78 CNS, in the assay with MOLT-4 leukemia and in the assay with M19-MEL melanoma was greater than 100 µM in each case. In addition, the TGI in the assay with TK-10 renal is greater than 100 µM.
Turning to `CCC12CC[C@H](C#N)N3CCc4c(n(c5ccccc45)C(=O)C1)C32` (some centres not stated), the TGI in the assay with U251 CNS was found to be 29.8 µM; in the assay on SK-MEL-2 melanoma, 31.9 µM; in the assay on MALME-3M melanoma, 19.3 µM; in the assay with DMS 273 small cell lung, 19 µM; in the assay on RXF-631 renal, 45.1 µM; with DLD-1 colon, 43.8 µM. The TGI in the assay with XF 498 CNS is 36.5 µM; with LXFL 529 NSCLC it was 33.7 µM; in the assay on KM20L2 colon, 35 µM; with SNB-78 CNS it was 51.9 µM; in the assay with MOLT-4 leukemia, 52 µM; in the assay on M19-MEL melanoma, 73.2 µM. Moreover, the results for the TGI with TK-10 renal and in the assay on RXF 393 renal were 46.8 µM and 29.6 µM, respectively.
With `NC(=S)Nc1nnc(-c2ccc(-c3nnc(NC(N)=S)o3)cc2)o1`, the TGI in the assay with U251 CNS, in the assay with DMS 114 small cell lung, in the assay with SK-MEL-2 melanoma, with MALME-3M melanoma, in the assay on DMS 273 small cell lung and with DLD-1 colon was greater than 100 µM each time. The TGI in the assay on LXFL 529 NSCLC, in the assay on HOP-18 NSCLC, in the assay with KM20L2 colon, with SNB-78 CNS, with MOLT-4 leukemia and in the assay with M19-MEL melanoma was greater than 100 µM throughout. Besides, the TGI in the assay with TK-10 renal and with RXF 393 renal was greater than 100 µM in each case.
As to `O=C(CSc1nnc(-c2ccc(N=Cc3ccc(Cl)cc3)cc2)o1)Nc1ccccc1`, the TGI was greater than 100 µM in the assay with U251 CNS; greater than 100 µM with DMS 114 small cell lung; greater than 100 µM in the assay with SK-MEL-2 melanoma; greater than 100 µM with MALME-3M melanoma; 70.6 µM in the assay on DMS 273 small cell lung; greater than 100 µM with XF 498 CNS. Also, the TGI in the assay with LXFL 529 NSCLC, with HOP-18 NSCLC, in the assay on KM20L2 colon, with SNB-78 CNS, in the assay on MOLT-4 leukemia and in the assay with M19-MEL melanoma was greater than 100 µM each time. For the same compound, the values for the TGI with TK-10 renal and with RXF 393 renal were greater than 100 µM and 96.9 µM, respectively.
On to `CCOC(=O)C(=O)Nc1ccc([N+](=O)[O-])cc1C#N`, for which the TGI in the assay with U251 CNS, in the assay on DMS 114 small cell lung, in the assay with SK-MEL-2 melanoma, with MALME-3M melanoma, in the assay on RXF-631 renal and with DLD-1 colon was greater than 100 µM in each case. The TGI with XF 498 CNS, in the assay on LXFL 529 NSCLC, in the assay with HOP-18 NSCLC, in the assay on MOLT-4 leukemia, in the assay on M19-MEL melanoma and with TK-10 renal was greater than 100 µM each time. This compound also returned a TGI with RXF 393 renal greater than 100 µM.
In the case of `O=C1OC(c2ccccc2)(c2ccccc2)CC1CN1CCOCC1` (configuration not stated), the TGI was 49.7 µM in the assay with U251 CNS; 32.6 µM with DMS 114 small cell lung; 36.5 µM in the assay with SK-MEL-2 melanoma; 26.6 µM in the assay on MALME-3M melanoma; greater than 100 µM in the assay on DMS 273 small cell lung; 43.8 µM in the assay with RXF-631 renal. Moreover, the TGI came to 31.8 µM in the assay on DLD-1 colon; 26.9 µM with LXFL 529 NSCLC; 27.7 µM in the assay on HOP-18 NSCLC; 36.6 µM in the assay on KM20L2 colon; 65.4 µM in the assay on MOLT-4 leukemia; 31 µM in the assay on M19-MEL melanoma. The same compound showed a TGI with TK-10 renal of 31.6 µM.
As for `O=C(/C=C(\O)C(=O)O)/C=C(\O)c1ccccc1Cl`, the TGI with U251 CNS, in the assay with DMS 114 small cell lung, in the assay on SK-MEL-2 melanoma, with MALME-3M melanoma, in the assay with DMS 273 small cell lung and in the assay with DLD-1 colon was greater than 100 µM each time. For the same compound, the TGI in the assay with XF 498 CNS, in the assay with LXFL 529 NSCLC, with HOP-18 NSCLC, in the assay with KM20L2 colon, with MOLT-4 leukemia and in the assay with TK-10 renal was greater than 100 µM throughout. This compound yielded a TGI in the assay on RXF 393 renal greater than 100 µM.
`CCOC(=O)C1=C(C)C2C3C(=O)NC(=O)C3C1(C)C1C(=O)NC(=O)C21` (configuration not stated): the TGI in the assay with U251 CNS, with DMS 114 small cell lung, in the assay with SK-MEL-2 melanoma, in the assay on MALME-3M melanoma, in the assay with DMS 273 small cell lung and in the assay on DLD-1 colon was greater than 100 µM throughout. Moreover, the TGI in the assay on LXFL 529 NSCLC, with HOP-18 NSCLC, in the assay on KM20L2 colon, in the assay on SNB-78 CNS, in the assay with MOLT-4 leukemia and with M19-MEL melanoma was greater than 100 µM in each case. For the same compound, the TGI in the assay with TK-10 renal and in the assay with RXF 393 renal was greater than 100 µM throughout.
As to `O=C(/C=C\c1cccc2ccccc12)c1ccc(Br)cc1`, the TGI was 29.6 µM in the assay with U251 CNS; 32.2 µM with DMS 114 small cell lung; 81.6 µM in the assay on MALME-3M melanoma; 34.5 µM with DMS 273 small cell lung; 38.4 µM in the assay with DLD-1 colon; 32.8 µM with LXFL 529 NSCLC. Also, the TGI in the assay with HOP-18 NSCLC was 43.4 µM; in the assay on KM20L2 colon, 32.2 µM; with SNB-78 CNS, 41.5 µM; in the assay with MOLT-4 leukemia, 82.2 µM; in the assay on M19-MEL melanoma, 33.9 µM; in the assay on TK-10 renal, greater than 100 µM.
In the case of `N=c1oc2cc(O)c(O)cc2cc1C(N)=O`, the TGI with U251 CNS, with DMS 114 small cell lung, with SK-MEL-2 melanoma, with MALME-3M melanoma, with DMS 273 small cell lung and in the assay with RXF-631 renal was greater than 100 µM each time. For the same compound, the TGI in the assay on DLD-1 colon, with XF 498 CNS, with LXFL 529 NSCLC, in the assay with KM20L2 colon, in the assay on SNB-78 CNS and in the assay on MOLT-4 leukemia was greater than 100 µM each time. Also, the TGI in the assay with M19-MEL melanoma, with TK-10 renal and with RXF 393 renal was greater than 100 µM each time.
With `CC1=C(N(C)C)C(=O)c2nc3n(c2C1=O)CCC3OC(N)=O` (configuration not stated), the TGI in the assay with U251 CNS is 49.9 µM; in the assay with DMS 114 small cell lung, 30.6 µM; with SK-MEL-2 melanoma it was 29.8 µM; in the assay with MALME-3M melanoma, 23.3 µM; in the assay with DMS 273 small cell lung, 29.3 µM; with DLD-1 colon it was 29.9 µM. Besides, the TGI was 38.8 µM in the assay with XF 498 CNS; 32 µM with HOP-18 NSCLC; 38.6 µM in the assay on KM20L2 colon; 40.9 µM in the assay with SNB-78 CNS; greater than 100 µM in the assay with MOLT-4 leukemia; 3.12 µM in the assay with M19-MEL melanoma. For the same compound, the TGI in the assay on TK-10 renal is 32.3 µM.
As for `COc1ccc2c(c1)CC1NC2Cc2ccccc21` (configuration not stated), the TGI in the assay with U251 CNS, with DMS 114 small cell lung, with SK-MEL-2 melanoma, in the assay with MALME-3M melanoma, in the assay on DLD-1 colon and with XF 498 CNS was greater than 100 µM each time. Further, the TGI with LXFL 529 NSCLC, with HOP-18 NSCLC, in the assay with KM20L2 colon, in the assay with SNB-78 CNS, in the assay with MOLT-4 leukemia and with M19-MEL melanoma was greater than 100 µM each time. Further, the TGI in the assay with TK-10 renal is greater than 100 µM.
Take `Cc1nc(Nc2ccccc2)sc1C(=O)NNC(N)=O`: the TGI in the assay with U251 CNS, in the assay on DMS 114 small cell lung, in the assay with SK-MEL-2 melanoma, in the assay with MALME-3M melanoma, in the assay with DMS 273 small cell lung and with DLD-1 colon was greater than 100 µM in each case. Also, the TGI in the assay on XF 498 CNS, in the assay on LXFL 529 NSCLC, with HOP-18 NSCLC, in the assay with KM20L2 colon, in the assay with SNB-78 CNS and in the assay on MOLT-4 leukemia was greater than 100 µM throughout. In addition, the TGI in the assay with M19-MEL melanoma, in the assay with TK-10 renal and in the assay with RXF 393 renal was greater than 100 µM throughout.
Regarding `Cc1c(C(=O)Nc2ccc(Cl)c(C(F)(F)F)c2)oc2cc(O)ccc2/c1=N\NC(N)=S`, the TGI in the assay on U251 CNS, in the assay on DMS 114 small cell lung, with SK-MEL-2 melanoma, in the assay with MALME-3M melanoma, with DMS 273 small cell lung and in the assay with DLD-1 colon was greater than 100 µM in each case. Moreover, the TGI in the assay with XF 498 CNS, in the assay with LXFL 529 NSCLC, in the assay with HOP-18 NSCLC, in the assay on KM20L2 colon, in the assay on SNB-78 CNS and with MOLT-4 leukemia was greater than 100 µM in each case. Moreover, the TGI with M19-MEL melanoma, with TK-10 renal and in the assay on RXF 393 renal was greater than 100 µM in each case.
